From PMC8712301, “Novel CYP11B-ligand [^123/131I]IMAZA as promising theranostic tool for adrenocortical tumors: comprehensive preclinical characterization and first clinical experience” (European Journal of Nuclear Medicine and Molecular Imaging, 2021)

How the values were obtained:
[1] = test system: advanced ACC; test: Diagnostic imaging and biokinetics with [123I]IMTO and [123I]IMAZA in patients with advanced ACC; format: in vivo, human; parameters: AUC (time integral of the uptake function): concentration or dose not given beside the values
Experimental: Three patients (#1, #2, and #3) were investigated by [^123I]IMAZA (administered doses, 117, 163, and 182 MBq, respectively) and subsequently by [^123I]IMTO (176, 169, and 146 MBq, respectively). The time interval between the imaging studies was at least 5 days. Scintigraphic imaging was performed using a Siemens Symbia dual-head gamma camera equipped with medium-energy parallel-hole collimators. Activity concentration was measured in whole blood samples drawn at 2 min, 5 min, 15 min, 1 h, 2.5 h, 5 h, and 23 h after the administration. Plasma activity was analyzed in patient #1.

[2] = test system: metastatic ACC; test: Dosimetry and endoradiotherapy with [131I]IMAZA in a patient with metastatic ACC; format: in vivo, human
Description: Patient #1 had experienced disease progression with a more than fourfold increase in their dominant lesions within only 4 months after a phase of disease stabilization after standard treatment with mitotane and eight courses of combination chemotherapy with etoposide, doxorubicin, and cisplatin. They received therapeutic doses with 28.2 GBq [^131I]IMAZA 1 month and with 30.5 GBq [^131I]IMAZA 7 months after the evaluation with [^123I]IMAZA. Prior to the first treatment, the absorbed dose to the blood was measured with a tracer activity of 72 MBq [^131I]IMAZA as a surrogate for the exposure of the dose-limiting organ, the red bone marrow. The absorbed dose to the blood was estimated from assessments of the activity kinetics in total body and blood up to 48 h when the mean activity concentrations had dropped to 5% of the values at 5 min after the administration in the total body and to 1% in the blood. During therapy, the total body activity retention was measured with a survey meter in the ceiling over the patient’s bed. Gamma camera whole body scans accompanied by blood sampling were acquired starting 4 days post-administration after the first and 2 days after the second therapy until dismissal. SPECT/CT imaging was performed after 4 and 5 days, respectively.
Tumor evaluation was performed by [^18F]FDG PET/CT at baseline and 2, 5, 8, 11, 14, and 21 months after administration of the first treatment dose. Subsequently, the patient declined further follow-up imaging or additional therapeutic interventions.

[3] = test system: NCI-H295 cells; test: Cellular subfractionation of NCI-H295 cells exposed to 125I-labeled tracers; format: cell-based, human
Experimental: (§1) NCI-H295 cells (n = 250,000 per vial) were incubated with 0.1 MBq of the respective ^125I-labeled tracer at 37 °C, 5% CO2. For the blocking experiment, the cells were co-incubated with etomidate. Aliquots were taken and immediately placed into a 4 °C ice bath. After 5 min, the solution was centrifuged and rinsed twice with PBS/0.5% Tween 80, and the collected rinse solution was measured in a gamma counter. Assays were performed in triplicates. The intracellular distribution of the respective ^125I-labeled inhibitors and the specific binding to mitochondrial membranes were verified using a commercially available kit (Qiagen Qproteome Mitochondria isolation).
(§2) Fig. 3 a In vitro uptake kinetics of [^125I]IMTO, [^125I]IMAZA, [^125I]3, and [^125I]4 in NCI-H295 cells. b Cellular uptake of [^125I]IMTO, [^125I]IMAZA, [^125I]3, and [^125I]4 in NCI-H295 cells with and without co-incubation with etomidate. Cells were incubated with 0.1 MBq of the respective compounds and co-incubated with (0.1 µM, 10 µM, 100 µM) etomidate to monitor the specific uptake (n = 3). c Cellular subfractionation of NCIH295 cells exposed to 0.1 MBq [^125I]IMTO, [^125I]IMAZA, [^125I]3, and [^125I]4 for 30 min at 37 °C. Distribution of the tracer compounds among the respective cellular subfractions

[4] = test system: adrenal gland; test: Biodistribution in male CD-1 mice; format: in vivo; conditions: for Uptake in the adrenals: i.v. 0.1 MBq
Experimental: Six- to 8-week old male CD-1 mice received 0.1 MBq [^125I]IMTO [17] or the ^125I-labeled IMTO-analogues as intravenous injection in the tail vein. At predefined time points, mice were sacrificed (min. n = 5 per time point). Blood and urine were collected, and several organs were excised and weighed, and tracer uptake was determined by measurement in a γ-counter.
Fig. 4 Biodistribution of [^125I]IMTO and the new compounds [^125I]IMAZA, [^125I]3, and [^125I]4 in male CD-1 mice. Mice were injected i.v. with 0.1 MBq of respective compounds. Ex vivo organ dosimetry was performed at predefined time points 15 min, 30 min, 120 min, and 240 min after tracer injection. Results are expressed as percentage of injected dose per gram organ (%ID/g). Exact numbers on uptake in the adrenal as %ID/g for the compounds are given in the supplemental data

[5] = test system: NCI-H295 cells; test: Cell uptake of 125I-labeled tracers in NCI-H295 cells, with and without etomidate; format: cell-based, human; parameters: Intracellular uptake with co-incubation of etomidate: dose or concentration left out as unconfirmed
Experimental: as §1
as §2, with “were incubated with 0.1 MBq of the respective compounds and co-incubated with (0.1 µM, 10 µM, 100 µM) etomidate to monitor the specific uptake” left out

[6] = Metabolic inactivation by human liver microsomes in vitro (radio-HPLC); format: in vitro ADME; conditions: human liver microsomes, radio-HPLC
Experimental: Metabolic degradation was determined by co-incubation of the tracers with human liver microsomes (Sigma, M0317). Experiments were conducted in triplicates. Incubation mixtures consisted of liver microsomes (0.2 mg/ml), the respective ^125I-labeled compound (0.1 MBq), MgCl2 (3.3 mM), and NADPH (1.3 mM) in a total volume of 0.6 ml K3PO4 puffer (25 mM, pH 7.2). The reaction was started with the addition of NADPH and incubated at 37 °C. At predefined time points, aliquots were removed, and the reaction was terminated by adding 160 µL ice-cold methanol. After centrifugation (5000 × g, 4 °C for 4 min), the supernatant was analyzed by radio-HPLC (see experimental details and Supplementary Fig. 1 in Supplement).

[7] = test system: human adrenocortical and non-adrenocortical tissue cryosections; test: Autoradiographic binding to human tissue cryosections
Experimental: Human tissues were quick frozen in liquid nitrogen to block further biological processes including protein degradation and stored at –80 °C. Frozen samples from adrenocortical carcinoma (ACC; n = 3), aldosterone-producing adenoma (APA; n = 2), and cortisol-producing adenoma (CPA; n = 2), normal adrenal, kidney, and liver were sectioned into 20-µm-thick tissue slices, thaw-mounted onto Superfrost slides (PAP PEN, Zymed® Laboratories) and stored at –80 °C until processing. For the experimental set up, the tissue slices were pre-incubated for 5 min at room temperature with buffer solution (pH 7.4, 50 mM Tris). Afterwards, the slices were directly incubated with TRIS HCl buffer solution containing 2% BSA. After 1-h blocking, slides were treated with 0.1 MBq of the different compounds. As controls, slides were incubated with 0.1 MBq of the compounds in 10 µM of the non-radioactive compound to assess binding specificity. In the following, slides were washed twice with 50 mM Tris HCl buffer solution (pH 7.4). For exposure, samples were placed on Phosphor Imager plates for 30 min in dedicated lead-shielded cassettes. Autoradiographic images were analyzed with a CR35BIO Image plate scanner, and data analysis was performed with Amide software version 0.9.0.
Fig. 5 Ex vivo imaging of normal adrenal gland, adrenocortical tumors, and control tissue (kidney, liver). Autoradiographic visualization of [^125I]IMTO and [^125I]IMAZA accumulation in the normal adrenal gland, in adrenocortical tumors (ACC, APA, CPA), kidney, and liver as control tissue (sections with 20 µm slice thickness) (representative example). […] The red circles show the position of the organs that are not shown in the imaging. A = 0.1 MBq tracer, B = 0.1 MBq tracer plus non-radioactive 10 µM inhibitor

[8] = patient #1, pre-therapeutic kinetics assessment with [131I]IMAZA
[9] = three patients with advanced ACC
[10] = tumor lesion: patient #1, lesion #1
[11] = tumor lesion: patient #1, lesion #2
[12] = tumor lesion: patient #2, lesion #1
[13] = tumor lesion: patient #3, lesion #1
[14] = tumor lesion: patient #3, lesion #2

SMILES: C[C@H](c1ccc([131I])cc1)n1cncc1C(=O)N1CCC1 [[^131I]IMAZA]
- Mean blood absorbed dose ([1]; kinetics recalculated for 131I from 123I diagnostics in patients): 0.03 Gy/GBq
- Long-term disease stabilization (progression-free survival) ([2]; patient #1, after first treatment): 21 months
- Survival (overall survival) ([2]; patient #1, after initial endoradiotherapy): 30 months
- Absorbed dose for both the liver and the kidney ([2]; patient #1, estimated): below 0.2 Gy/GBq
- Absorbed dose to the blood ([2]; patient #1, first therapy with 28.2 GBq): 1.1 Gy
- Activity giving an absorbed dose to the blood of 2 Gy ([2]; patient #1, pre-therapeutic kinetics assessment): 63 GBq
- Absorbed dose to the blood [2, 8]: 0.032 Gy/GBq
- Residence time in the whole blood [2, 8]: 0.17 h per liter of whole blood
- Residence time in the total body ([2]; patient #1, pre-therapeutic kinetics assessment with tracer activity): 10.9 h

SMILES: COC(=O)c1cncn1[C@H](C)c1ccc([123I])cc1 [[^123I]IMTO, [^123I]iodometomidate]
- AUC (time integral of the uptake function) ([1]; median of five tumor lesions): 0.0024 h/g
- effective half-live ([1]; median of five tumor lesions): 11.0 h
- uptake ([1]; median of five tumor lesions): 0.011 %/g
- Activity concentration in plasma, times higher than in whole blood ([1]; patient #1, hematocrit 35%): 1.16 times
- Residence time per liter of whole blood, times higher than for [123I]IMAZA [1, 9]: 3.6 ± 1.5 times
- Total body residence time, times higher than for [123I]IMAZA [1, 9]: 2.2 ± 0.2 times
- AUC (time integral of the uptake function) [1, 10]: 0.0031 h/g
- effective half-live [1, 10]: 11.2 h
- uptake ([1]; tumor lesion: patient #1, lesion #1, SPECT/CT, normalised to administered activity): 0.015 %/g
- AUC (time integral of the uptake function) [1, 11]: 0.0024 h/g
- effective half-live [1, 11]: 11.0 h
- uptake ([1]; tumor lesion: patient #1, lesion #2, SPECT/CT): 0.011 %/g
- AUC (time integral of the uptake function) [1, 12]: 0.0016 h/g
- effective half-live [1, 12]: 12.4 h
- uptake ([1]; tumor lesion: patient #2, lesion #1, SPECT/CT): 0.006 %/g
- AUC (time integral of the uptake function) [1, 13]: 0.0017 h/g
- effective half-live [1, 13]: 8.0 h
- uptake ([1]; tumor lesion: patient #3, lesion #1, SPECT/CT): 0.010 %/g
- AUC (time integral of the uptake function) [1, 14]: 0.0056 h/g
- effective half-live [1, 14]: 10.1 h
- uptake ([1]; tumor lesion: patient #3, lesion #2, SPECT/CT): 0.027 %/g

SMILES: COC(=O)c1cncn1C(C)c1ccc([125I])cc1 (stereo not drawn) [[^125I]IMTO, reference compound]
- Accumulation in the cytosolic fraction ([3]; 0.1 MBq, 30 min at 37 °C): 7%
- Accumulation in the mitochondrial subfraction ([3]; 0.1 MBq, 30 min at 37 °C): 59.4%
- Accumulation in the nuclei, cell debris subfraction ([3]; 0.1 MBq, 30 min at 37 °C): 33.6%
- Uptake in the adrenals ([4]; male CD-1 mice, 15 min): 491.2 ± 170.3 %ID/g
- Uptake in the adrenals ([4]; male CD-1 mice, 30 min): 321.3 ± 170.6 %ID/g
- Uptake in the adrenals ([4]; male CD-1 mice, 120 min): 80.5 ± 43.7 %ID/g
- Uptake in the adrenals ([4]; male CD-1 mice, 240 min): 27.4 ± 25.9 %ID/g
- Intracellular uptake with co-incubation of etomidate ([5]; NCI-H295 cells): 28.2%
- Intracellular uptake in NCI-H295 cells ([5]; after 30 min, 0.1 MBq tracer, 37 °C): 36.4%

SMILES: C[C@H](c1ccc([125I])cc1)n1cncc1C(=O)N1CCC1 [[^125I]IMAZA]
- Subcellular distribution compared with [125I]IMTO ([3]; 30 min): similar
- Metabolic stability compared with [125I]IMTO [6]: more than threefold longer half-life
- Autoradiographic signal compared with [125I]IMTO ([7]; human adrenocortical tissue): distinctively stronger
- Binding to control tissue (liver, kidney) ([7]; human liver n = 2, kidney n = 1): no binding was detected
- Binding to ACC, APA, and CPA tissue ([7]; human tissue sections 20 µm, 0.1 MBq tracer, ± 10 µM non-radioactive compound): very strong and specific binding
- Uptake in the non-target organs ([4]; male CD-1 mice): extremely low uptake values
- Uptake in the adrenals ([4]; male CD-1 mice, 15 min): 710.9 ± 210.5 %ID/g
- Uptake in the adrenals ([4]; male CD-1 mice, 30 min): 720.4 ± 169.7 %ID/g
- Uptake in the adrenals ([4]; male CD-1 mice, 120 min): 395.7 ± 92.7 %ID/g
- Uptake in the adrenals ([4]; male CD-1 mice, 240 min): 275.4 ± 124.1 %ID/g
- Uptake at the latest time point, times higher compared to [125I]IMTO ([4]; mice): 10 times
- Tracer uptake and target to background ratios compared with [125I]IMTO ([4]; mice biodistribution): higher tracer uptake with better target to background ratios
- Intracellular uptake with co-incubation of etomidate ([5]; NCI-H295 cells): 8.6%
- Uptake with co-incubation of etomidate ([5]; NCI-H295 cells, highest concentration 100 µM etomidate): almost completely blocked
- Intracellular uptake in NCI-H295 cells compared with [125I]IMTO ([5]; at 30 min): highest uptake
